Measurements reported in patent US20240108618A1, “KRAS G12C INHIBITOR DOSING REGIMENS” (Eli Lilly and Company, priority 2022, published 2024).

Tested on: KRAS G12C-mutant advanced solid tumors
Test: NCT04956640 Phase 1a monotherapy clinical response (BOR, ORR, DCR, DOR, TTR, % change from baseline, treatment duration)
Format: in vivo, human
Settings: for Best overall response (BOR): Complete Response (CR), % / Best overall response (BOR): No Evaluable (NE), % / Best overall response (BOR): Partial Response (PR), % / Best overall response (BOR): Partial Response, pending confirmation and ongoing (uPR), % / Best overall response (BOR): Progressive Disease (PD), % / Best overall response (BOR): Stable Disease (SD), % / Disease control rate (CR + PR + uPR + SD), % / Objective response rate (CR + PR), % / Objective response rate, confirmed and unconfirmed (CR + PR + uPR), %: Phase 1a NSCLC patients; for Duration of response (DOR) 6 to <9 months / Duration of response (DOR) <6 months / Time to response (TTR) 2 to <4 months / Time to response (TTR) 4 to <6 months / Time to response (TTR) 6 to <9 months / Time to response (TTR) <2 months: Phase 1a responders
Description: The term “BOR” as used herein refers to best overall response based on investigator assessments using RECIST criteria (version 1.1). The minimum duration for BOR of SD is at least 6 weeks after the date of first dose of study drug.
The term “DOR” as used herein refers to duration of response, wherein DOR in months is calculated as the event or censoring date minus the response start date plus 1 day divided by 30.4375.
The term “ORR” as used herein refers to objective response rate, wherein objective response rate is the proportion of patients with BOR of CR or PR. Objective response rate, unconfirmed, is the proportion of patients with BOR of CR, PR, or uPR.
The term “TTR” as used herein refers to time to response, wherein TTR in months is calculated as response start date minus first dose date plus 1 day divided by 30.4375.
NCT04956640 includes Phase 1a dose escalation (Part A of NCT04956640, see Table 3) followed by a Phase 1b dose expansion (Parts B to E of NCT04956640, see Table 4). […] Phase 1b dose expansion will include 12 cohorts (See Table 4) to further evaluate safety and clinical activity.

[1] = Without Prior KRAS G12Ci (N = 8)
[2] = starting dose 50 mg BID (N = 14)
[3] = starting dose 100 mg BID (N = 24)
[4] = starting dose 150 mg BID (N = 25)
[5] = starting dose 200 mg BID (N = 12)

C=CC(=O)N1CCN2C(=O)c3cc(F)c(-c4ccc(F)c5sc(N)c(C#N)c45)c(Cl)c3OCC[C@H]2C1 (single isomer, unassigned) [Formula I]
Best observed response PD (unconfirmed and confirmed), patients (CRC): 1
Best observed response PR (unconfirmed and confirmed), patients (CRC): 1
Best observed response SD, patients (CRC): 13
Best observed response PD (unconfirmed and confirmed), patients (NSCLC naïve to KRAS G12Ci): 1
Best observed response SD, patients (NSCLC naïve to KRAS G12Ci): 1
Best observed response PD (unconfirmed and confirmed), patients (NSCLC with prior KRAS G12Ci): 3
Best observed response PR (unconfirmed and confirmed), patients (NSCLC with prior KRAS G12Ci): 1
Best observed response SD, patients (NSCLC with prior KRAS G12Ci): 3
Best observed response PD (unconfirmed and confirmed), patients (PANC): 2
Best observed response PR (unconfirmed and confirmed), patients (PANC): 2
Best observed response SD, patients (PANC): 2
Best overall response (BOR): Complete Response (CR), % (Total (N = 22)): (0.0) %
Best overall response (BOR): No Evaluable (NE), % (Total (N = 22)): (4.5) %
Best overall response (BOR): Partial Response (PR), % (Total (N = 22)): (18.2) %
Best overall response (BOR): Partial Response, pending confirmation and ongoing (uPR), % (Total (N = 22)): (0.0) %
Best overall response (BOR): Progressive Disease (PD), % (Total (N = 22)): (22.7) %
Best overall response (BOR): Stable Disease (SD), % (Total (N = 22)): (54.5) %
Disease control rate (CR + PR + uPR + SD), % (Total (N = 22)): (72.7) %
Objective response rate (CR + PR), % (Total (N = 22)): (18.2) %
Objective response rate, confirmed and unconfirmed (CR + PR + uPR), % (Total (N = 22)): (18.2) %
Best overall response (BOR): Complete Response (CR), % (With Prior KRAS G12Ci (N = 14)): (0.0) %
Best overall response (BOR): No Evaluable (NE), % (With Prior KRAS G12Ci (N = 14)): (7.1) %
Best overall response (BOR): Partial Response (PR), % (With Prior KRAS G12Ci (N = 14)): (7.1) %
Best overall response (BOR): Partial Response, pending confirmation and ongoing (uPR), % (With Prior KRAS G12Ci (N = 14)): (0.0) %
Best overall response (BOR): Progressive Disease (PD), % (With Prior KRAS G12Ci (N = 14)): (28.6) %
Best overall response (BOR): Stable Disease (SD), % (With Prior KRAS G12Ci (N = 14)): (57.1) %
Disease control rate (CR + PR + uPR + SD), % (With Prior KRAS G12Ci (N = 14)): (64.3) %
Objective response rate (CR + PR), % (With Prior KRAS G12Ci (N = 14)): (7.1) %
Objective response rate, confirmed and unconfirmed (CR + PR + uPR), % (With Prior KRAS G12Ci (N = 14)): (7.1) %
Best overall response (BOR): Complete Response (CR), % [1]: (0.0) %
Best overall response (BOR): No Evaluable (NE), % [1]: (0.0) %
Best overall response (BOR): Partial Response (PR), % [1]: (37.5) %
Best overall response (BOR): Partial Response, pending confirmation and ongoing (uPR), % [1]: (0.0) %
Best overall response (BOR): Progressive Disease (PD), % [1]: (12.5) %
Best overall response (BOR): Stable Disease (SD), % [1]: (50.0) %
Disease control rate (CR + PR + uPR + SD), % [1]: (87.5) %
Objective response rate (CR + PR), % [1]: (37.5) %
Objective response rate, confirmed and unconfirmed (CR + PR + uPR), % [1]: (37.5) %
Duration of response (DOR) 6 to <9 months (Total (N = 75)): 3 (15.8) n (%)
Duration of response (DOR) <6 months (Total (N = 75)): 16 (84.2) n (%)
Time to response (TTR) 2 to <4 months (Total (N = 75)): 2 (10.5) n (%)
Time to response (TTR) 4 to <6 months (Total (N = 75)): 2 (10.5) n (%)
Time to response (TTR) 6 to <9 months (Total (N = 75)): 1 (5.3) n (%)
Time to response (TTR) <2 months (Total (N = 75)): 14 (73.7) n (%)
Duration of response (DOR) 6 to <9 months [2]: 0 (0.0) n (%)
Duration of response (DOR) <6 months [2]: 2 (100.0) n (%)
Time to response (TTR) 2 to <4 months [2]: 0 (0.0) n (%)
Time to response (TTR) 4 to <6 months [2]: 0 (0.0) n (%)
Time to response (TTR) 6 to <9 months [2]: 0 (0.0) n (%)
Time to response (TTR) <2 months [2]: 2 (100.0) n (%)
Duration of response (DOR) 6 to <9 months [3]: 0 (0.0) n (%)
Duration of response (DOR) <6 months [3]: 7 (100.0) n (%)
Time to response (TTR) 2 to <4 months [3]: 1 (14.3) n (%)
Time to response (TTR) 4 to <6 months [3]: 0 (0.0) n (%)
Time to response (TTR) 6 to <9 months [3]: 1 (14.3) n (%)
Time to response (TTR) <2 months [3]: 5 (71.4) n (%)
Duration of response (DOR) 6 to <9 months [4]: 2 (33.3) n (%)
Duration of response (DOR) <6 months [4]: 4 (66.7) n (%)
Time to response (TTR) 2 to <4 months [4]: 0 (0.0) n (%)
Time to response (TTR) 4 to <6 months [4]: 2 (33.3) n (%)
Time to response (TTR) 6 to <9 months [4]: 0 (0.0) n (%)
Time to response (TTR) <2 months [4]: 4 (66.7) n (%)
Duration of response (DOR) 6 to <9 months [5]: 1 (25.0) n (%)
Duration of response (DOR) <6 months [5]: 3 (75.0) n (%)
Time to response (TTR) 2 to <4 months [5]: 1 (25.0) n (%)
Time to response (TTR) 4 to <6 months [5]: 0 (0.0) n (%)
Time to response (TTR) 6 to <9 months [5]: 0 (0.0) n (%)
Time to response (TTR) <2 months [5]: 3 (75.0) n (%)
Patients with best overall response of CR or PR (Phase 1a, Total (N = 75)): 19 (25.3) N′ (%)
